Reference: patent US20170190705A1, “Compositions and Methods for Inhibiting BMP” (THE BRIGHAM AND WOMAN'S HOSPITAL, INC., priority 2014, published 2017)

Key:
Format in all cases: biochemical
[1] = biological target: T1, DDR2 (Homo sapiens, UniProt Q16832); test: Kinome profiling DDR2; conditions: read-out: Inhibitory activity DDR2; for inhibition at 0.1 µM: 100 nM
T1 sequence (Q16832 22-855): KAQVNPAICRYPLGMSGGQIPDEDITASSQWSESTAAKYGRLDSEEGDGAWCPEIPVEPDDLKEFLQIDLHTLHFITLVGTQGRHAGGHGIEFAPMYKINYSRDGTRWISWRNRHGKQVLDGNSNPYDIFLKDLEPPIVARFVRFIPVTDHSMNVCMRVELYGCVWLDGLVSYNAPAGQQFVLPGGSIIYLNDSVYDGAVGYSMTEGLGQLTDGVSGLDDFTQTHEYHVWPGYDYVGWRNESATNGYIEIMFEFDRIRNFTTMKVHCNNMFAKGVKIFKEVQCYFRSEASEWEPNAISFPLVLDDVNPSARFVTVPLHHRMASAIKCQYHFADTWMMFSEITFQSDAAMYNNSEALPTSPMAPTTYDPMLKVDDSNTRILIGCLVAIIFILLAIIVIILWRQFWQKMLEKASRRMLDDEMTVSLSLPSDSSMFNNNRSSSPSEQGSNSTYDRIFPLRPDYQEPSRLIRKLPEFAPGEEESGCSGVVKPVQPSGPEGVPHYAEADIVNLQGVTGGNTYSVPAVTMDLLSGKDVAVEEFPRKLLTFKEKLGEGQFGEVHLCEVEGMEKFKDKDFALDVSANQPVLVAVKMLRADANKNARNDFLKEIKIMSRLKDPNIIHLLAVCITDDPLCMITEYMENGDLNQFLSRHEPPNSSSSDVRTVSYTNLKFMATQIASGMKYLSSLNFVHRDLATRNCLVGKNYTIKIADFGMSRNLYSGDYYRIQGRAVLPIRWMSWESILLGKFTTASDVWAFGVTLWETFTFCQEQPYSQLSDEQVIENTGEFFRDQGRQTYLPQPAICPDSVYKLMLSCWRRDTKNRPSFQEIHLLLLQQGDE
Method: (§1) . The kinome-wide selectivity was determined following the methods previously reported by Mohedas et al., ACS Chem Biol 2013, 8, 1291-1302 and Sanvitale et al., PLoS One 2013, 8, e62721.

[2] = biological target: RON (Homo sapiens, UniProt Q04912); test: Kinome profiling RON; conditions: read-out: Inhibitory activity RON; for inhibition at 0.1 µM: 100 nM
Method: as §1

[3] = biological target: T2, NEK9 (Homo sapiens, UniProt Q8TD19); test: Kinome profiling NEK9; conditions: read-out: Inhibitory activity NEK9; for inhibition at 0.1 µM: 100 nM
T2 sequence (Q8TD19 1-979): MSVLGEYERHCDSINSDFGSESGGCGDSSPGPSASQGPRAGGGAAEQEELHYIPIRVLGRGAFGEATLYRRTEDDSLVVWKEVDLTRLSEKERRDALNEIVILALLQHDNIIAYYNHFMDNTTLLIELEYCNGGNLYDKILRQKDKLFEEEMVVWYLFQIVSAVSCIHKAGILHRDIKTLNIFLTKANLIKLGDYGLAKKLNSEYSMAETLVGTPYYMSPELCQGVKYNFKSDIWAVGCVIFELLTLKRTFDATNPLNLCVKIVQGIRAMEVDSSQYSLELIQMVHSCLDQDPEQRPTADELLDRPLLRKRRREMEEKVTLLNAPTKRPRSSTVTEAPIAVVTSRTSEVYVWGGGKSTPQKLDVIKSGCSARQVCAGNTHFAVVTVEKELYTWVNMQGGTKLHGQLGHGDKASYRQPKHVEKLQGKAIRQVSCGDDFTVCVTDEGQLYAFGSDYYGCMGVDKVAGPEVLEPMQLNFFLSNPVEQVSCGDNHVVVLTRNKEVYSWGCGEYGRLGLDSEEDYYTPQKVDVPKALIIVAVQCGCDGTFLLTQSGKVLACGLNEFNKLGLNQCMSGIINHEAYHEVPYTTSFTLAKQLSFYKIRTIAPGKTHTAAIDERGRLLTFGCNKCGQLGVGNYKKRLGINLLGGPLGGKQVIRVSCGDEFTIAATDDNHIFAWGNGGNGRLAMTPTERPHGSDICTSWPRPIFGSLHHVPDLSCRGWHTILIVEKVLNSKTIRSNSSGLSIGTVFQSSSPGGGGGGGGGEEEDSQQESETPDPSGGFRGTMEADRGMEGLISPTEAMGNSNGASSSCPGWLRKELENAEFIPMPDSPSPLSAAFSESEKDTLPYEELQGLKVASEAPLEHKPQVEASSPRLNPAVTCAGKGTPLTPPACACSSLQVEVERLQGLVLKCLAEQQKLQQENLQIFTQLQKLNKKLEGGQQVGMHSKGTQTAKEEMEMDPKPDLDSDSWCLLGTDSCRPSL
Method: as §1

[4] = biological target: RSK1 (Homo sapiens, UniProt Q15418); test: Kinome profiling RSK1; conditions: read-out: Inhibitory activity RSK1; for inhibition at 0.1 µM: 100 nM
Method: as §1

[5] = biological target: PAK6 (Homo sapiens, UniProt Q9NQU5); test: Kinome profiling PAK6; conditions: read-out: Inhibitory activity PAK6; for inhibition at 0.1 µM: 100 nM
Method: as §1

[6] = biological target: MAPKAPK3 (Homo sapiens, UniProt Q16644); test: Kinome profiling MAPKAPK3; conditions: read-out: Inhibitory activity MAPKAPK3; for inhibition at 0.1 µM: 100 nM
Method: as §1

[7] = biological target: PKC-β1 (Homo sapiens, UniProt P05771); test: Kinome profiling PKC-β1; conditions: read-out: Inhibitory activity PKC-β1; for inhibition at 0.1 µM: 100 nM
Method: as §1

MAPKAPK3, sequence (Q16644 whole entry): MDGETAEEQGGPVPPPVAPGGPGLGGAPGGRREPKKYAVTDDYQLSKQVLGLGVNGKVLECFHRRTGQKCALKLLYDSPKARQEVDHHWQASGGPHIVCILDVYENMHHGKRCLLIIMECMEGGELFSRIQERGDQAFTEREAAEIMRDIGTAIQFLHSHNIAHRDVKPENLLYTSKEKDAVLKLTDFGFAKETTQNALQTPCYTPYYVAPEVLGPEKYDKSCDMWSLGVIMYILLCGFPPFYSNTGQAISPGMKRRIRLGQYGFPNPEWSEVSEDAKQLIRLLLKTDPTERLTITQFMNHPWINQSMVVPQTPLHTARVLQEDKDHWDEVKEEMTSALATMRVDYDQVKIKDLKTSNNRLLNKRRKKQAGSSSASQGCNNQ
RON, sequence (Q04912 25-1400): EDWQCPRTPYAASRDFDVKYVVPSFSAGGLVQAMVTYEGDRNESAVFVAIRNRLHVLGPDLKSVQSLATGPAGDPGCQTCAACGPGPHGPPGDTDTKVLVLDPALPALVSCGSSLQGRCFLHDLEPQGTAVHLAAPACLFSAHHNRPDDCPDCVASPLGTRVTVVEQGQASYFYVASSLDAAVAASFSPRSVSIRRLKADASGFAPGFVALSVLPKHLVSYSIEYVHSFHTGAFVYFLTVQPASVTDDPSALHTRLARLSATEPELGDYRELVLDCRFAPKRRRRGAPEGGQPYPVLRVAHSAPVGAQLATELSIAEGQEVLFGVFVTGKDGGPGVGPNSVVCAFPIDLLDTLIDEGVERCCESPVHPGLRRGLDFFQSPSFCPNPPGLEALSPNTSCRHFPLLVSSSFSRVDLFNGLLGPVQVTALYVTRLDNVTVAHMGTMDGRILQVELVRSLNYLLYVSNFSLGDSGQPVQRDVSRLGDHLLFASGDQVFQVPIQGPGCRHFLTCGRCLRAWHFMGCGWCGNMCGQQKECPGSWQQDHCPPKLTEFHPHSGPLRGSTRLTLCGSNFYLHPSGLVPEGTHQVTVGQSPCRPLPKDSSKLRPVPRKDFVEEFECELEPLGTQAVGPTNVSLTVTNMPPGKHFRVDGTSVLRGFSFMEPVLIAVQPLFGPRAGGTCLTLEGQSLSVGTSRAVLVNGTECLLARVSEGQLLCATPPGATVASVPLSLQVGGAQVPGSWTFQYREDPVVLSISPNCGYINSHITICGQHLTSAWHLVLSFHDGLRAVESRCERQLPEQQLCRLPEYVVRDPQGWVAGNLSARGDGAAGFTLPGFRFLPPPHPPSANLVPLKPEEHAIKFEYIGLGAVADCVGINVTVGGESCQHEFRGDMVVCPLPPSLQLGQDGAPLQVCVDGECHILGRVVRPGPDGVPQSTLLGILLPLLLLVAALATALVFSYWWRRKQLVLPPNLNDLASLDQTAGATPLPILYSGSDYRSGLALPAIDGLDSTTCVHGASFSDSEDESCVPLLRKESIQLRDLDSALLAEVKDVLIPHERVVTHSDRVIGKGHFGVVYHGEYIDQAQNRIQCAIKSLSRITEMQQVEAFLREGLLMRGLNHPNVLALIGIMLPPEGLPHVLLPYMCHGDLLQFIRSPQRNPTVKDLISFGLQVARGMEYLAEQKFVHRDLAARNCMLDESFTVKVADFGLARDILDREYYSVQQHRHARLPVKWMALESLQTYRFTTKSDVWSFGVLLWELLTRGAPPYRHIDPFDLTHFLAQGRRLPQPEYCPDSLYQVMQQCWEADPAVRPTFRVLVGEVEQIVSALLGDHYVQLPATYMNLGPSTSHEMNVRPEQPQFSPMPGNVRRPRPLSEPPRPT
PAK6, sequence (Q9NQU5 whole entry): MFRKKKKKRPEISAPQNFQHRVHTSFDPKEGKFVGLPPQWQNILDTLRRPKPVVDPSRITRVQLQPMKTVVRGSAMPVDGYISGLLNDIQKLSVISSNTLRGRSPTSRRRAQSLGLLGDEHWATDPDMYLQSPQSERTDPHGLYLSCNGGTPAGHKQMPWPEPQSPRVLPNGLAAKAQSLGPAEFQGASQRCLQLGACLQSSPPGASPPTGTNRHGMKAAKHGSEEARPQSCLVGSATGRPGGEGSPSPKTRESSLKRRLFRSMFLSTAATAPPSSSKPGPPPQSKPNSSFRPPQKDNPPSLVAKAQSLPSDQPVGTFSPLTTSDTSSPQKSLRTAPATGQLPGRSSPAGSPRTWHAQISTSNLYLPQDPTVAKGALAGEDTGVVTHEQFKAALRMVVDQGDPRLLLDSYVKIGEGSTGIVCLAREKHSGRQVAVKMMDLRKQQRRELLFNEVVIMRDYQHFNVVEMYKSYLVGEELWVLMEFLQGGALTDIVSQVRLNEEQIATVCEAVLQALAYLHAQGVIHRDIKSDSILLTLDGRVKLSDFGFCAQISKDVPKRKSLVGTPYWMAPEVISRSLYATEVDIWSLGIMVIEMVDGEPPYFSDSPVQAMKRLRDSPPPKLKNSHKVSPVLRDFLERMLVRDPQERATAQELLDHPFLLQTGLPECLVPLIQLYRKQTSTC
PKC-β1, sequence (P05771 whole entry): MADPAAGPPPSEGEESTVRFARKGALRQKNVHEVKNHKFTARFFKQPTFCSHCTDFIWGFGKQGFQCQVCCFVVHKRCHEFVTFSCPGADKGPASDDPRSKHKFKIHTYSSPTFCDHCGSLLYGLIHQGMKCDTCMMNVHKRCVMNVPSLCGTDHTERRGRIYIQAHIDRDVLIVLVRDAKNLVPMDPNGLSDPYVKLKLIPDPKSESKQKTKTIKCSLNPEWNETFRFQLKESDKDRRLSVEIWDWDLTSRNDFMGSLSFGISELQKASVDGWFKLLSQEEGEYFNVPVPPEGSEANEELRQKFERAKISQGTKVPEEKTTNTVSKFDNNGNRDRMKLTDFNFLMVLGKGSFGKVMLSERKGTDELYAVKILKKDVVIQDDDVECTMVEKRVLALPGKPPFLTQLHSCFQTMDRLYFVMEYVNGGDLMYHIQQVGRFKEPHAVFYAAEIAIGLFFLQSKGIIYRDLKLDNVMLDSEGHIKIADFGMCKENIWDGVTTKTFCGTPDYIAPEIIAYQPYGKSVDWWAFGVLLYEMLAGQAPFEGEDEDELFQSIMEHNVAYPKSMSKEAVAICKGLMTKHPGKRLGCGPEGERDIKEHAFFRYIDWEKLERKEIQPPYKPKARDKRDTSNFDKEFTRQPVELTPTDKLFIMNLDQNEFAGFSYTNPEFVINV
RSK1, sequence (Q15418 whole entry): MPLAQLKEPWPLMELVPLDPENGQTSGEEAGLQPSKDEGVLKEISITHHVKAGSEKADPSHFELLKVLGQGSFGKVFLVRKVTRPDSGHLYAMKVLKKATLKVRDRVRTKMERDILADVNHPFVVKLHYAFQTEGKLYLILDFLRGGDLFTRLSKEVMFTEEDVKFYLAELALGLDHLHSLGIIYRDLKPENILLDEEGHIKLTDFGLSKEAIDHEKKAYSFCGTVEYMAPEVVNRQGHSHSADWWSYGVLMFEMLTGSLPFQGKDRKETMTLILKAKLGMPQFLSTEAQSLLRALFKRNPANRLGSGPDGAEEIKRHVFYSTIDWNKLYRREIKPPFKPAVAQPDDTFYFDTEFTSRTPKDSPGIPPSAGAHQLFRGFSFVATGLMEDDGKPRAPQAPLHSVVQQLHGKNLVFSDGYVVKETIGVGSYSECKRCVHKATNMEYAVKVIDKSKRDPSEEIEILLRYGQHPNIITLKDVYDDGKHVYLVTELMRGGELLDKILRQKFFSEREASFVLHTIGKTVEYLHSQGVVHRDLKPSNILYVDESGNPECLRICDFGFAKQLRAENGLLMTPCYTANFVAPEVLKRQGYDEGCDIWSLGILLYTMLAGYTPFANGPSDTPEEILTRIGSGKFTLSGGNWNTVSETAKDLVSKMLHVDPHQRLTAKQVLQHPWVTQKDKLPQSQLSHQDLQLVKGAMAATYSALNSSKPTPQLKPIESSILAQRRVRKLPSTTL

SMILES | inhibition at 0.1 µM [1] [%] | inhibition at 1 µM [1] [%] | inhibition at 0.1 µM [2] [%] | inhibition at 1 µM [2] [%] | inhibition at 0.1 µM [3] [%] | inhibition at 1 µM [3] [%] | inhibition at 0.1 µM [4] [%] | inhibition at 1 µM [4] [%] | inhibition at 0.1 µM [5] [%] | inhibition at 1 µM [5] [%] | inhibition at 0.1 µM [6] [%] | inhibition at 1 µM [6] [%] | inhibition at 0.1 µM [7] [%] | inhibition at 1 µM [7] [%]
COc1cc(-c2cc(-c3ccc(N4CCNCC4)cc3)cnc2C)cc(OC)c1OC [Compound 10, 1-(4-(6-methyl-5-(3,4,5-trimethoxyphenyl)pyridin-3-yl)phenyl)piperazine] | -1 | 20 | 2 | 6 | 1 | 1 | 1 | 1 | 1 | 5 | -1 | 0 | 0 | 1
COc1cc(-c2cc(-c3ccc(N4CCNCC4)cc3)cnc2N)cc(OC)c1OC [Compound 15, 5-(4-(piperazin-1-yl)phenyl)-3-(3,4,5-trimethoxyphenyl)pyridin-2-amine] | 32 | 86 | 3 | 17 | 3 | 6 | 1 | 5 | 5 | 3 | 1 | 1 | 0 | 0
